Test [1] concerns the target T1, Adenine phosphoribosyltransferase (Homo sapiens, UniProt P07741).
T1 sequence (P07741 whole entry): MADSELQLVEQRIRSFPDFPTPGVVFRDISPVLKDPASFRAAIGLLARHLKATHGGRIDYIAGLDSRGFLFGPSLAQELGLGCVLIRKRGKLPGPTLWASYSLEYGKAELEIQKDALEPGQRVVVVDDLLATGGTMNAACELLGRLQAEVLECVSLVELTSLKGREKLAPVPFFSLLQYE

The target of test [2] is Serine/threonine-protein kinase ATR (Homo sapiens, UniProt Q13535).
The target of test [3] is Cyclin-dependent kinase 2 (Homo sapiens, UniProt P24941).
The target in test [4] is T2, Cyclin-dependent kinase-like 5 (Homo sapiens, UniProt O76039).
T2 sequence (O76039 whole entry): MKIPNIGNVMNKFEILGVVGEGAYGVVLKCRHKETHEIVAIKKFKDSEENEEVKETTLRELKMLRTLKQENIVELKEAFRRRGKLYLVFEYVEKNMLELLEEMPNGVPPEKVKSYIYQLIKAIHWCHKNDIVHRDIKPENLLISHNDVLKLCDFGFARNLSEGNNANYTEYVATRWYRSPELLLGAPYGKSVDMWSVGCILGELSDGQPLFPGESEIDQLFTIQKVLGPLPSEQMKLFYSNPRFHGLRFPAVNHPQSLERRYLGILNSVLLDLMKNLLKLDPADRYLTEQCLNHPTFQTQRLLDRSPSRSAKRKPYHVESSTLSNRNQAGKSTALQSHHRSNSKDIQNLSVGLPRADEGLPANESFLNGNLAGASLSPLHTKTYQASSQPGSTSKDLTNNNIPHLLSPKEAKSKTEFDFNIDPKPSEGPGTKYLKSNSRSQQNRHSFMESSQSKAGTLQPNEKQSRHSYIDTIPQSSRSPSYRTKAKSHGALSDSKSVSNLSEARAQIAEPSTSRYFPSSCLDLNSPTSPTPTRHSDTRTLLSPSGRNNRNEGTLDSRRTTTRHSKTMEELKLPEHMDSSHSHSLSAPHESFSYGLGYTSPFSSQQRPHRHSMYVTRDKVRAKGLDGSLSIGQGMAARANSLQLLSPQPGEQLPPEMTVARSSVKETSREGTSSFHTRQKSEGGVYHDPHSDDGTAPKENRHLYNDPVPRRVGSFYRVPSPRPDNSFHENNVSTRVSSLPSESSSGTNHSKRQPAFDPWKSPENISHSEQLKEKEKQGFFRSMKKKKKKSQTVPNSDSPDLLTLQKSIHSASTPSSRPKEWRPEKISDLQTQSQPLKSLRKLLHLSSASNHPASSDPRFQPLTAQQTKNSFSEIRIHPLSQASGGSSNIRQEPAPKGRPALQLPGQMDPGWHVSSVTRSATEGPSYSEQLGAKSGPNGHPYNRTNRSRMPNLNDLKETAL

Test [5] addresses Dual specificity protein kinase CLK2 (Homo sapiens, UniProt P49760).
Test [6] concerns the target Guanine nucleotide-binding protein G(i) subunit alpha-2 (Homo sapiens, UniProt P04899).
The target in test [7] is T3, Inhibitor of nuclear factor kappa-B kinase subunit epsilon (Homo sapiens, UniProt Q14164).
T3 sequence (Q14164 whole entry): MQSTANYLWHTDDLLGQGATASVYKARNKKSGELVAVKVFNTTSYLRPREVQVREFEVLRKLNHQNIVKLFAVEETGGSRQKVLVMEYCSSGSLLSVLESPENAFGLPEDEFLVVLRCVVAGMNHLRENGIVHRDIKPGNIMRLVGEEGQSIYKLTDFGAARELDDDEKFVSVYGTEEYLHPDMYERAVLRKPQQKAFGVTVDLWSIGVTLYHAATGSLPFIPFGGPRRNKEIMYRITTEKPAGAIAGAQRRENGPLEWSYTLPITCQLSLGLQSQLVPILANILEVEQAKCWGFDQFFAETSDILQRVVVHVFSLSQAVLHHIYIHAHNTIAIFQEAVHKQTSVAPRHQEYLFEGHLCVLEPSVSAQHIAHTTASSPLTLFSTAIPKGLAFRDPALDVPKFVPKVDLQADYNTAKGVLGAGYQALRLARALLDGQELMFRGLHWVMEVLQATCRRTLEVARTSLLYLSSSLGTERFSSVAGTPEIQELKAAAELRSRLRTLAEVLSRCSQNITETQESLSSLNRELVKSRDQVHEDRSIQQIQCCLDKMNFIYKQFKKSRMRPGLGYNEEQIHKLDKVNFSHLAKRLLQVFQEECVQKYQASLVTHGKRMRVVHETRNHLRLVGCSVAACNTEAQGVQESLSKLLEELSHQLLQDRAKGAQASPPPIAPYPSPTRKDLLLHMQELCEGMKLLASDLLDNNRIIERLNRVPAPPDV

Test [8] concerns the target MAP kinase-activated protein kinase 3 (Homo sapiens, UniProt Q16644).
For test [9], the target named is Phosphatidylethanolamine-binding protein 1 (Homo sapiens, UniProt P30086).
Chain of Phosphatidylethanolamine-binding protein 1 (P30086 whole entry): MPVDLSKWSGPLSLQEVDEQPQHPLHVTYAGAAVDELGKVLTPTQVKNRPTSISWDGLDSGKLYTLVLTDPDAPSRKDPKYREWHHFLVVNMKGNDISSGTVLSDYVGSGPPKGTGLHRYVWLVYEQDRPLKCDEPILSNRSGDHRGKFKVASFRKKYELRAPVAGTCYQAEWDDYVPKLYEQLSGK
Test [10] concerns the target T4, Phosphatidylinositol 5-phosphate 4-kinase type-2 alpha (Homo sapiens, UniProt P48426).
T4 sequence (P48426 whole entry): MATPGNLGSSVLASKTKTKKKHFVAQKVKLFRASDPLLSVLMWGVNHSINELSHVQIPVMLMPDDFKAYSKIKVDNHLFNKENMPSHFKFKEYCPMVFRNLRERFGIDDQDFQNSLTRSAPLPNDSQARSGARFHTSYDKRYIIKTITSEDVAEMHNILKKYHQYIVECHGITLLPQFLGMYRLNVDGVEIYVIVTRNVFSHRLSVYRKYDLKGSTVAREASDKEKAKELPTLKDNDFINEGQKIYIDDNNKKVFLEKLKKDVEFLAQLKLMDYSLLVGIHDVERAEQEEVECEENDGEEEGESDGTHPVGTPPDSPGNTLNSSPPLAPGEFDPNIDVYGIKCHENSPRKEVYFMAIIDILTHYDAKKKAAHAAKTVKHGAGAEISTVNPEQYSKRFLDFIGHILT

In test [11] the target is Serine/threonine-protein kinase N3 (Homo sapiens, UniProt Q6P5Z2).
Chain of Serine/threonine-protein kinase N3 (Q6P5Z2 whole entry): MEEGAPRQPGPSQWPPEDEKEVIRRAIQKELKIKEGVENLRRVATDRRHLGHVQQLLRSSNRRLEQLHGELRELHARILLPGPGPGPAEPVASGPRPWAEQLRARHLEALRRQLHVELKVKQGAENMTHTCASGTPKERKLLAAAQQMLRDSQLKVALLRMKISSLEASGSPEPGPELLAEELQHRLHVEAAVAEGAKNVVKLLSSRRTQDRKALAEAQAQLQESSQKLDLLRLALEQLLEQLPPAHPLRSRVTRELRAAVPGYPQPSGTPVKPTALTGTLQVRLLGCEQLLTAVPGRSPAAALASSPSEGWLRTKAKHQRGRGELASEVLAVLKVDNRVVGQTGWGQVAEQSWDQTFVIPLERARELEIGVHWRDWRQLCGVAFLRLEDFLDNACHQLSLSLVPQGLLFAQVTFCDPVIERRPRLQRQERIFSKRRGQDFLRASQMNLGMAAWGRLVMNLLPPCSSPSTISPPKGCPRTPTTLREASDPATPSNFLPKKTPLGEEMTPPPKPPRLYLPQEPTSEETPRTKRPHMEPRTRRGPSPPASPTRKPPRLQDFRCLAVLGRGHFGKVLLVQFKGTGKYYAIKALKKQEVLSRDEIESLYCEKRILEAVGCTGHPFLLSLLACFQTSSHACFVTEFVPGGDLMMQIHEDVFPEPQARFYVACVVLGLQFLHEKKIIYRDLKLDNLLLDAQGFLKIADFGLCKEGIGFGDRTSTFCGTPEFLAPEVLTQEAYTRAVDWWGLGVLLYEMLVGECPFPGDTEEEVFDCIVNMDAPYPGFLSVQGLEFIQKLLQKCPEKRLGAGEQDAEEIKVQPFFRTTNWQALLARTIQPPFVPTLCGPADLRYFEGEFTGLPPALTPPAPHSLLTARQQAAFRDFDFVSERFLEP
Test [12] has as its target Tyrosine-protein kinase Fgr (Homo sapiens, UniProt P09769).

Activity calls are given as the source filed them.
Further: in the data inactive means no Kd found up to 30 µM.

Chain of Dual specificity protein kinase CLK2 (P49760 whole entry): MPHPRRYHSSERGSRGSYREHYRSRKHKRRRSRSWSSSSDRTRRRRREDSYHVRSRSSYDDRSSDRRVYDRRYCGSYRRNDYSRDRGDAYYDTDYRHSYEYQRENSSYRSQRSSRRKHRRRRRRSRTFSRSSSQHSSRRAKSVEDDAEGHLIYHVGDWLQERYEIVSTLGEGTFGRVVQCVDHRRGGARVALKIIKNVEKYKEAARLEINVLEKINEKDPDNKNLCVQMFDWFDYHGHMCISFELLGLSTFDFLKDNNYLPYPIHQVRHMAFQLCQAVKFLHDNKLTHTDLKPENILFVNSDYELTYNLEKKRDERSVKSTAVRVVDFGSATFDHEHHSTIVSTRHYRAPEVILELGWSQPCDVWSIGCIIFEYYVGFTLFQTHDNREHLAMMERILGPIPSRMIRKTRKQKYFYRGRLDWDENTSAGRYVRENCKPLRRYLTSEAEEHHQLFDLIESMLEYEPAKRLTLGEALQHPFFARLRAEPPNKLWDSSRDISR
Chain of MAP kinase-activated protein kinase 3 (Q16644 whole entry): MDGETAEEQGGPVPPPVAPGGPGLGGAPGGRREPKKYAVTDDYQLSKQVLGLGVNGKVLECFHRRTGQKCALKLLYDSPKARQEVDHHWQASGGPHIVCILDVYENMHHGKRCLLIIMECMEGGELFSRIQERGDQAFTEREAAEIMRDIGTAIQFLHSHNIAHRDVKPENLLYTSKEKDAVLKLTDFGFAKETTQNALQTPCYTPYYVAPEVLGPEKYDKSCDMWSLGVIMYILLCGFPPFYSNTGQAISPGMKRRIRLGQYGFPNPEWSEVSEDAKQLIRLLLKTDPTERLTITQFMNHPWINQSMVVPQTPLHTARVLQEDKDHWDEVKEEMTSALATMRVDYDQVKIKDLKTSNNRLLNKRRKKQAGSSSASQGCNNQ
Chain of Tyrosine-protein kinase Fgr (P09769 whole entry): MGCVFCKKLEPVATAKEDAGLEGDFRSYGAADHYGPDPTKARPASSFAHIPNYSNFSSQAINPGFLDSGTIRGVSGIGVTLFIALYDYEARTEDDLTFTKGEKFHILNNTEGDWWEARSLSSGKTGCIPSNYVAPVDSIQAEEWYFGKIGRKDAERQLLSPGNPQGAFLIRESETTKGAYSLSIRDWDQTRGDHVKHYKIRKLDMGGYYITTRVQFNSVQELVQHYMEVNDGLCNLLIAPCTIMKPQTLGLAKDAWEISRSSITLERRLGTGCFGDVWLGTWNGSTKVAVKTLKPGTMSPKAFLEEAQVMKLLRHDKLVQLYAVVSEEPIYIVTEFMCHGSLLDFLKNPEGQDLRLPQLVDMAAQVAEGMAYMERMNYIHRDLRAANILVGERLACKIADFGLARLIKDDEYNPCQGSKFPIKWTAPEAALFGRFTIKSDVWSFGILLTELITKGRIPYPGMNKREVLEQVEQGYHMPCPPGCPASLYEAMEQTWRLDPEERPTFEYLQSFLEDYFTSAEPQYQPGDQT
Chain of Guanine nucleotide-binding protein G(i) subunit alpha-2 (P04899 whole entry): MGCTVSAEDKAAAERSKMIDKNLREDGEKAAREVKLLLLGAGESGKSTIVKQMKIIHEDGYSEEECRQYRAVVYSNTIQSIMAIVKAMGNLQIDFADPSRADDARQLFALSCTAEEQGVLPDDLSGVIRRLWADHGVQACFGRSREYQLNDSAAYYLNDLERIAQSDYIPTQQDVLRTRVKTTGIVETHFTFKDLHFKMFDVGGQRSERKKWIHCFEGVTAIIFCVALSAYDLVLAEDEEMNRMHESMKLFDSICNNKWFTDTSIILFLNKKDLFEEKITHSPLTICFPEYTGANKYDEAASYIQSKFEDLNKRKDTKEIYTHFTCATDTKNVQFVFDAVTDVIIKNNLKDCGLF

As to `C[C@@H]1CN(Cc2ccc(F)cc2)[C@@H](C)CN1C(=O)c1cc2c(C(=O)C(=O)N(C)C)cn(C)c2cc1Cl` [TALMAPIMOD], the Kd in [1], in [2], in test [3], in [4], in [5] and in [6] was > 30 µM (inactive) in each case. In addition, the Kd in [7], in [8], in [9], in [10] and in [11] was > 30 µM (inactive) each time.

On to `CNC(=O)c1ccc(C)c(-n2c(C)cc(OCc3ccc(F)cc3F)c(Br)c2=O)c1` [PH-797804], for which the Kd in [3], in test [5], in test [12], in test [6], in test [7] and in [9] was > 30 µM (inactive) throughout. Moreover, the Kd – broadly, a measure of binding affinity in units of concentration – in test [11] was > 30 µM (inactive).

In the case of `Cc1nc(N)sc1-c1ccnc(Nc2ccc(N3CCOCC3)cc2)n1` [CYC-116], the Kd in test [1], in test [12], in test [9], in test [10] and in test [11] was > 30 µM (inactive) each time.

Take `COc1cc(OC)c(/C=C/S(=O)(=O)Cc2ccc(OC)c(NCC(=O)O)c2)c(OC)c1` [RIGOSERTIB]: the Kd in test [2], in test [3], in [4], in test [5], in [12] and in test [6] was > 30 µM (inactive) each time. The Kd in [7], in test [10] and in [11] was > 30 µM (inactive) in each case.

With `Cc1cc(-c2cc(O)ccc2Cl)cc2nnc(Nc3ccc(OCCN4CCCC4)cc3)nc12`, the Kd in [1], in [2], in test [3], in [4], in [5] and in test [12] was > 30 µM (inactive) throughout. For the same molecule, the Kd in [7], in test [8], in test [10] and in test [11] was > 30 µM (inactive) throughout.

As for `Cc1cc2c(F)c(Oc3ncnn4cc(OC[C@@H](C)OC(=O)[C@H](C)N)c(C)c34)ccc2[nH]1` [BRIVANIB ALANINATE], the Kd in test [1], in [3], in [4], in [5], in test [6] and in test [7] was > 30 µM (inactive) throughout. The Kd in [8], in [9], in test [10] and in [11] was > 30 µM (inactive) throughout.

Take `CC[C@H](Nc1ncnc2[nH]cnc12)c1nc2cccc(F)c2c(=O)n1-c1ccccc1` [IDELALISIB]: the Kd in [1], in test [2], in test [3], in test [4], in [5] and in test [12] was > 30 µM (inactive) in each case. For the same molecule, the Kd in [6], in test [8], in [9], in test [10] and in test [11] was > 30 µM (inactive) throughout.

Turning to `O=C(c1ccc(F)c(F)c1Nc1ccc(I)cc1F)N1CC(O)([C@@H]2CCCCN2)C1` [COBIMETINIB], the Kd in test [2], in [3], in test [4], in [5], in [7] and in test [8] was > 30 µM (inactive) in each case. Besides, the Kd in [9], in test [10] and in test [11] was > 30 µM (inactive) each time.

With `O=C(Nc1ccc(-c2ccnc(Nc3ccc(N4CCOCC4)cc3)n2)cc1)C1CCCN1` (stereo unspecified) [XL-019], the Kd in [1], in test [2], in test [4], in [5], in test [12] and in test [6] was > 30 µM (inactive) in each case. Moreover, the equilibrium dissociation constant (Kd) was 0.342 µM (active) in test [7], > 30 µM (inactive) in [8], > 30 µM (inactive) in test [9] and > 30 µM (inactive) in test [11].

For the molecule `CCN1CCN(Cc2ccc(-c3cc4c(N[C@H](C)c5ccccc5)ncnc4[nH]3)cc2)CC1` [AEE-788], the Kd in test [1], in test [2], in test [3], in [5], in test [6] and in test [7] was > 30 µM (inactive) in each case. Moreover, the Kd in test [8] and in [9] was > 30 µM (inactive) throughout.

In the case of `CN1N=C(N)c2cn([C@@H]3O[C@H](COP(=O)(O)O)[C@@H](O)[C@H]3O)c3ncnc1c23` [TRICIRIBINE PHOSPHATE], the Kd in test [1], in test [3], in test [12], in test [7], in test [9] and in test [10] was > 30 µM (inactive) in each case.

Turning to `COCCNCc1ccc(-c2cc3nccc(Oc4ccc(NC(=S)NC(=O)Cc5ccc(F)cc5)cc4F)c3s2)nc1` [GLESATINIB], the Kd in test [1], in test [3], in test [4], in test [5], in test [6] and in [7] was > 30 µM (inactive) throughout. Besides, the Kd in test [8], in test [9], in [10] and in test [11] was > 30 µM (inactive) in each case.

Source of the values: ChEMBL document CHEMBL3991601, “The target landscape of clinical kinase drugs” (Science, 2017).
